One assay deals with T1, human ALX receptor (Homo sapiens, UniProt P25090).
T1 construct: expressed in transfected cells; host or cells: HEK293 (HEK293-hALXR-Gα16)
T1 sequence (P25090 1-351): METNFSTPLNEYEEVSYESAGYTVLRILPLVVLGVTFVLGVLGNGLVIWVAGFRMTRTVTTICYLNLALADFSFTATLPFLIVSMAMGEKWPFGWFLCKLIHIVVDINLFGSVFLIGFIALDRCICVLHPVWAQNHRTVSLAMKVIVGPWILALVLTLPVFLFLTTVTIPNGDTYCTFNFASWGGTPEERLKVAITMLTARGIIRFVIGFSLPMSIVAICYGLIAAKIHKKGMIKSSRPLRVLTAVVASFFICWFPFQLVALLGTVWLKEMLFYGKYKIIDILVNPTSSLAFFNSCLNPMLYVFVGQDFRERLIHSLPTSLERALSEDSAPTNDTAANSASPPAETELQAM
As to the kind of experiment: Intracellular calcium measurements (FLIPR), agonistic activity in HEK293-hALXR-Gα16 cells. The class given is cell-based. The settings on record: Fluo-4 calcium FLIPR, normalized to WKYMVm 10 nM. An outline of the steps: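 HEK293 cells expressing hALXR and Gα16 were loaded with 1 μM Fluo-4 AM and 20 mM HEPES for 60 min at 37°C, then exposed to serially diluted compound. FLIPR fluorescence was read at ex 488/em 540 nm. Baseline-subtracted peak responses were normalized to 10 nM WKYMVm.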
For orientation: Calcium assays in cells follow changes in intracellular calcium, usually with a dye or a luminescent sensor.

A further assay addresses T2, human FPRL2 (Homo sapiens, UniProt P25089).
T2 construct: expressed in transfected cells; host or cells: HEK293 (HEK293-hFPRL2-Gα16)
T2 sequence (P25089 1-353): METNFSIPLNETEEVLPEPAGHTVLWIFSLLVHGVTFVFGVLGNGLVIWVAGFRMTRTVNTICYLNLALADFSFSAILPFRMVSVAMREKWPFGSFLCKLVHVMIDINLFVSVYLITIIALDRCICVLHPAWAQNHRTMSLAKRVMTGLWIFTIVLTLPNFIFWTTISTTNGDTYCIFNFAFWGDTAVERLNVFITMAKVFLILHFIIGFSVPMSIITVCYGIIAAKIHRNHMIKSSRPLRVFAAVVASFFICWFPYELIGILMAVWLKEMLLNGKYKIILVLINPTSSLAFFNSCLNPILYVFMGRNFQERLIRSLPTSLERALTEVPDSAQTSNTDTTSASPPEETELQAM
In words: Intracellular calcium measurements (FLIPR), agonistic activity in HEK293-hFPRL2-Gα16 cells. The class given is cell-based. Particulars: Fluo-4 calcium FLIPR, normalized to GLY14-Humanin 100 nM. An outline of the steps: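 Peak values after baseline subtraction are expressed relative to 100 nM Gly14-Humanin; compounds diluted in assay buffer from 10 mM DMSO stocks.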

A word on the EC50: it is the concentration giving half of the maximal effect.

`CCCCCNC(=O)[C@H]1[C@H](C(=O)Nc2ccc(Br)cc2)[C@@H]2C=C[C@H]1C21CC1` (racemic) [Example 67, (5R*)—N^5-(4-Bromophenyl)-(6R*)—N^6-(pentyl)-(4S*,7R*)-[4,7-ethenylene-spiro[2.4]heptane]-5,6-dicarboxamide]: the EC50 at human ALX receptor was 34 nM; at human FPRL2 it was greater than 25000 nM.

As to `CC(C)(C)OC(=O)NCCCCCNC(=O)[C@H]1[C@H](C(=O)Nc2ccc(Br)cc2)[C@@H]2C=C[C@H]1C21CC1` (racemic) [Example 68, (5R*)—N^5-(4-Bromophenyl)-(6R*)—N^6-(5-tert-butoxycarbonyl-amino-pentyl)-(4S*,7R*)-[4,7-ethenylene-spiro[2.4]heptane]-5,6-dicarboxamide], the EC50 at human ALX receptor was 27 nM; at human FPRL2, 2170 nM.

In the case of `CC(C)CCN1CCC(NC(=O)[C@H]2[C@H](C(=O)Nc3ccc(Br)cc3)[C@@H]3C=C[C@H]2C32CC2)CC1` (racemic) [Example 69, (5R*)—N^5-(4-Bromophenyl)-(6R*)—N^6—(N-(3-methyl-butyl)-piperidin-4-yl)-(4S*,7R*)-[4,7-ethenylene-spiro[2.4]heptane]-5,6-dicarboxamide], the figures for the EC50 at human ALX receptor and at human FPRL2 were 58 nM and 708 nM, respectively.

As for `O=C(NCCc1ccccn1)[C@H]1[C@H](C(=O)Nc2ccc(Br)cc2)[C@@H]2C=C[C@H]1C21CC1` (racemic) [Example 70, (5R*)—N^5-(4-Bromophenyl)-(6R*)—N^6-(2-pyridin-2-yl-ethyl)-(4S*,7R*)-[4,7-ethenylene-spiro[2.4]heptane]-5,6-dicarboxamide], the EC50 on human ALX receptor was 61 nM; at human FPRL2, 4380 nM.

As for `CC(C)(CNC(=O)OC(C)(C)C)CNC(=O)[C@H]1[C@H](C(=O)Nc2ccc(Br)cc2)[C@@H]2C=C[C@H]1C21CC1` (racemic) [Example 71, (5R*)—N^5-(4-Bromophenyl)-(6R*)—N^6-(2,2-dimethyl-3-N-tert-butoxycarbonyl-amino-propyl)-(4S*,7R*)-[4,7-ethenylene-spiro[2.4]heptane]-5,6-dicarboxamide], the concentration giving a half-maximal response (EC50) at human ALX receptor is 63 nM; on human FPRL2, 5550 nM.

Regarding `O=C(Nc1ccnn1-c1ccccc1)[C@H]1[C@H](C(=O)Nc2ccc(Br)cc2)[C@@H]2C=C[C@H]1C21CC1` (racemic) [Example 72, (5R*)—N^5-(4-Bromophenyl)-(6R*)—N^6-(1-phenyl-1H-pyrazol-5-yl)-(4S*,7R*)-[4,7-ethenylene-spiro[2.4]heptane]-5,6-dicarboxamide], the EC50 at human ALX receptor was 70 nM; on human FPRL2, 1850 nM.

In the case of `O=C(NC1CC1)[C@H]1[C@H](C(=O)Nc2ccc(Br)cc2)[C@@H]2C=C[C@H]1C21CC1` (racemic) [Example 73, (5R*)—N^5-(4-Bromophenyl)-(6R*)—N^6-(cyclopropyl)-(4S*,7R*)-[4,7-ethenylene-spiro[2.4]heptane]-5,6-dicarboxamide], the EC50 at human ALX receptor was 63 nM; at human FPRL2, 4610 nM.

For the compound `CCCCCCNC(=O)[C@H]1[C@H](C(=O)Nc2ccc(Br)cc2)[C@@H]2C=C[C@H]1C21CC1` (racemic) [Example 75, (5R*)—N^5-(4-Bromophenyl)-(6R*)—N^6-(hexyl)-(4S*,7R*)-[4,7-ethenylene-spiro[2.4]heptane]-5,6-dicarboxamide], the EC50 is 73 nM on human ALX receptor and 7980 nM on human FPRL2.

`CCn1nc(C)cc1CCNC(=O)[C@H]1[C@H](C(=O)Nc2ccc(Br)cc2)[C@@H]2C=C[C@H]1C21CC1` (racemic) [Example 76, (5R*)—N^5-(4-Bromophenyl)-(6R*)—N^6-(2-(1-ethyl-3-methyl-1H-pyrazol-5-yl)-ethyl)-(4S*,7R*)-[4,7-ethenylene-spiro[2.4]heptane]-5,6-dicarboxamide]: the EC50 on human ALX receptor is 77 nM; at human FPRL2 it was 2430 nM.

Take `CCN(CC)CCCNC(=O)[C@H]1[C@H](C(=O)Nc2ccc(Br)cc2)[C@@H]2C=C[C@H]1C21CC1` (racemic) [Example 78, (5R*)—N^5-(4-Bromophenyl)-(6R*)—N^6-(3-diethyl-amino-propyl)-(4S*,7R*)-[4,7-ethenylene-spiro[2.4]heptane]-5,6-dicarboxamide]: the EC50 on human ALX receptor came out at 80 nM; on human FPRL2, 5480 nM.

As for `O=C(NCCN1CCOCC1)[C@H]1[C@H](C(=O)Nc2ccc(Br)cc2)[C@@H]2C=C[C@H]1C21CC1` (racemic) [Example 80, (5R*)—N^5-(4-Bromophenyl)-(6R*)—N^6-(2-morpholino-ethyl)-(4S*,7R*)-[4,7-ethenylene-spiro[2.4]heptane]-5,6-dicarboxamide], the values for the EC50 on human ALX receptor and at human FPRL2 were 97 nM and 7870 nM, respectively.

Take `O=C(NC1CCN(Cc2ccccc2)CC1)[C@H]1[C@H](C(=O)Nc2ccc(Br)cc2)[C@@H]2C=C[C@H]1C21CC1` (racemic) [Example 83, (5R*)—N^5-(4-Bromophenyl)-(6R*)—N^6—(N-benzyl-piperidin-4-yl)-(4S*,7R*)-[4,7-ethenylene-spiro[2.4]heptane]-5,6-dicarboxamide]: the EC50 came out at 123 nM at human ALX receptor and 678 nM on human FPRL2.

Turning to `CCCCCCN(C)C(=O)[C@H]1[C@H](C(=O)Nc2ccc(Br)cc2)[C@@H]2C=C[C@H]1C21CC1` (racemic) [Example 84, (5R*)—N^5-(4-Bromophenyl)-(6R*)—N^6-methyl-N^6-hexyl-(4S*,7R*)-[4,7-ethenylene-spiro[2.4]heptane]-5,6-dicarboxamide], the 50% effective concentration (EC50) on human ALX receptor was 133 nM; at human FPRL2 it was 5500 nM.

Consider `CC(C)(C)CCNC(=O)[C@H]1[C@H](C(=O)Nc2ccc(Br)cc2)[C@@H]2C=C[C@H]1C21CC1` (racemic) [Example 85, (5R*)—N^5-(4-Bromophenyl)-(6R*)—N^6-(3,3-dimethyl-butyl)-(4S*,7R*)-[4,7-ethenylene-spiro[2.4]heptane]-5,6-dicarboxamide], for which the EC50 was 146 nM on human ALX receptor and 8300 nM on human FPRL2.

Consider `CN1CCC(NC(=O)[C@H]2[C@H](C(=O)Nc3ccc(Br)cc3)[C@@H]3C=C[C@H]2C32CC2)CC1` (racemic) [Example 86, (5R*)—N^5-(4-Bromophenyl)-(6R*)—N^6—(N-methyl-piperidin-4-yl)-(4S*,7R*)-[4,7-ethenylene-spiro[2.4]heptane]-5,6-dicarboxamide], for which the EC50 at human ALX receptor is 147 nM; on human FPRL2, 6940 nM.

On to `O=C(NCCCN1CCOCC1)[C@H]1[C@H](C(=O)Nc2ccc(Br)cc2)[C@@H]2C=C[C@H]1C21CC1` (racemic) [Example 87, (5R*)—N^5-(4-Bromophenyl)-(6R*)—N^6-(3-morpholino-propyl)-(4S*,7R*)-[4,7-ethenylene-spiro[2.4]heptane]-5,6-dicarboxamide], for which the values for the EC50 on human ALX receptor and at human FPRL2 were 156 nM and 2200 nM, respectively.

Turning to `Cc1[nH]ncc1CCCNC(=O)[C@H]1[C@H](C(=O)Nc2ccc(Br)cc2)[C@@H]2C=C[C@H]1C21CC1` (racemic) [Example 88, (5R*)—N^5-(4-Bromophenyl)-(6R*)—N^6-(3-(5-methyl-1H-pyrazol-4-yl)-propyl)-(4S*,7R*)-[4,7-ethenylene-spiro[2.4]heptane]-5,6-dicarboxamide], the figures for the EC50 on human ALX receptor and on human FPRL2 were 168 nM and 9420 nM, respectively.

For the compound `CC(C)(C)OC(=O)CCCNC(=O)[C@H]1[C@H](C(=O)Nc2ccc(Br)cc2)[C@@H]2C=C[C@H]1C21CC1` (racemic) [Example 89, (5R*)—N^5-(4-Bromophenyl)-(6R*)—N^6-(3-tert-butoxycarbonyl-propyl)-(4S*,7R*)-[4,7-ethenylene-spiro[2.4]heptane]-5,6-dicarboxamide], the EC50 at human ALX receptor worked out at 191 nM; at human FPRL2, 2470 nM.

Turning to `CC(C)(C)OC(=O)NCc1cccc(CNC(=O)[C@H]2[C@H](C(=O)Nc3ccc(Br)cc3)[C@@H]3C=C[C@H]2C32CC2)c1` (racemic) [Example 90, (5R*)—N^5-(4-Bromophenyl)-(6R*)—N^6-{[(3-N-tert-butoxycarbonyl-aminomethyl)-phenyl]-methyl}-(4S*,7R*)-[4,7-ethenylene-spiro[2.4]heptane]-5,6-dicarboxamide], the values for the EC50 on human ALX receptor and on human FPRL2 were 194 nM and 2260 nM, respectively.

As to `CCCN(CC1CC1)C(=O)[C@H]1[C@H](C(=O)Nc2ccc(Br)cc2)[C@@H]2C=C[C@H]1C21CC1` (racemic) [Example 91, (5R*)—N^5-(4-Bromophenyl)-(6R*)—N^6-propyl-N^6-(cyclopropylmethyl)-(4S*,7R*)-[4,7-ethenylene-spiro[2.4]heptane]-5,6-dicarboxamide], the EC50 on human ALX receptor worked out at 200 nM; at human FPRL2, 2980 nM.

The values are drawn from patent US8563714B2, “Bridged spiro [2.4] heptane derivatives as ALX receptor and/or FPRL2 agonists” (Actelion Pharmaceuticals Ltd., priority 2009, dated 2013).
